Measurements reported in the supplement of paper PMC10307832.

Experiments:
Assay in all cases: relative viability (nuclei count vs DMSO), 5 days (fraction); higher = more cells survive
IPA-3 + Palbociclib = compound: C1=CC=C2C(=C1)C=CC(=C2SSC3=C(C=CC4=CC=CC=C43)O)O [IPA-3] + CC(=O)c1c(C)c2cnc(Nc3ccc(N4CCNCC4)cn3)nc2n(C2CCCC2)c1=O [Palbociclib] (partner 0.5 µM)
In short: (§1)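 Lung cancer cell lines, seeded in 1536-well plates, were treated the following day by pin tool with a single drug or with five library-drug doses (not always all listed) in √10 steps on top of a fixed anchor-drug dose. Cells were fixed and nuclei stained in one step after 5 days, and nuclei were counted. Relative viability is the nuclei count for treated wells divided by that for vehicle wells, reported as medians of duplicate plates.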

Doramapimod + Trametinib = compound: Cc1ccc(-n2nc(C(C)(C)C)cc2NC(=O)Nc2ccc(OCCN3CCOCC3)c3ccccc23)cc1 [Doramapimod] + CC(=O)Nc1cccc(-n2c(=O)n(C3CC3)c(=O)c3c(Nc4ccc(I)cc4F)n(C)c(=O)c(C)c32)c1 [Trametinib] (partner 0.02 µM)
In short: as §1

Doramapimod + Alpelisib = compound: Cc1ccc(-n2nc(C(C)(C)C)cc2NC(=O)Nc2ccc(OCCN3CCOCC3)c3ccccc23)cc1 [Doramapimod] + Cc1nc(NC(=O)N2CCC[C@H]2C(N)=O)sc1-c1ccnc(C(C)(C)C(F)(F)F)c1 [Alpelisib] (partner 2 µM)
In short: as §1

RAF265 + Luminespib = compound: Cn1c(Nc2ccc(C(F)(F)F)cc2)nc2cc(Oc3ccnc(-c4ncc(C(F)(F)F)[nH]4)c3)ccc21 [RAF265] + CCNC(=O)c1noc(-c2cc(C(C)C)c(O)cc2O)c1-c1ccc(CN2CCOCC2)cc1 [Luminespib] (partner 0.01 µM)
In short: as §1

Cell Line	relative viability (IPA-3 + Palbociclib; first compound 0.2 µM)	relative viability (IPA-3 + Palbociclib; first compound 0.6325 µM)	relative viability (IPA-3 + Palbociclib; first compound 2 µM)	relative viability (IPA-3 + Palbociclib; first compound 6.325 µM)	relative viability (IPA-3 + Palbociclib; first compound 20 µM)	relative viability (Doramapimod + Trametinib; first compound 0.02 µM)	relative viability (Doramapimod + Trametinib; first compound 0.06325 µM)	relative viability (Doramapimod + Trametinib; first compound 0.2 µM)	relative viability (Doramapimod + Trametinib; first compound 0.6325 µM)	relative viability (Doramapimod + Trametinib; first compound 2 µM)	relative viability (Doramapimod + Alpelisib; first compound 0.02 µM)	relative viability (Doramapimod + Alpelisib; first compound 0.06325 µM)	relative viability (Doramapimod + Alpelisib; first compound 0.2 µM)	relative viability (Doramapimod + Alpelisib; first compound 0.6325 µM)	relative viability (Doramapimod + Alpelisib; first compound 2 µM)	relative viability (RAF265 + Luminespib; first compound 0.01 µM)	relative viability (RAF265 + Luminespib; first compound 0.03162 µM)	relative viability (RAF265 + Luminespib; first compound 0.1 µM)	relative viability (RAF265 + Luminespib; first compound 0.3162 µM)	relative viability (RAF265 + Luminespib; first compound 1 µM)
LU99A	0.437	0.376	0.425	0.452	0.394	0.501	0.511	0.545	0.645	0.477	0.523	0.484	0.486	0.484	0.441	0.262	0.194	0.229	0.182	0.202
201T	0.363	0.38	0.391	0.342	0.388	0.736	0.715	0.729	0.772	0.71	1.04	1	0.992	1.07	0.982	1.07	0.972	1.03	0.995	0.997
HCC-827	0.559	0.475	0.484	0.53	0.568	0.571	0.408	0.521	0.594	0.405	0.931	1.01	0.97	1.01	0.612	0.837	0.652	0.74	–	0.132
NCI-H1666	0.643	0.672	0.624	0.616	0.658	0.84	0.895	0.936	0.907	0.795	0.834	1.01	0.882	1.03	1.01	1.11	1.01	1.1	1.05	0.977
